Starred links: 1 amine or outer side, 2 acyl side, 3 side chain; linkers in the order of their positions; H or OH if unused. Non-standard residues stand in square brackets, D forms with d. Residues, ends and D or L forms follow the SMILES beside them. Groups on a side chain read outwards from the residue. *: point of attachment. Trp(5-Br) = N[C@@H](Cc1c[nH]c2ccc(Br)cc12)C(=O)O; C20 diacid = O=C(O)CCCCCCCCCCCCCCCCCCC(=O)*; Trp(1-Me) = Cn1cc(C[C@H](N)C(=O)O)c2ccccc21; C18 diacid = O=C(O)CCCCCCCCCCCCCCCCC(=O)*; γGlu = O=C(O)[C@H](CCC(=O)[*:2])N[*:1]; αMeF = C[C@](N)(Cc1ccccc1)C(=O)O; AEEA = NCCOCCOCC(=O)O; Aib = CC(C)(N)C(=O)O
How the values were obtained:
[1] = target: human GLP-1 receptor (hGLP-1R) (Homo sapiens, UniProt P43220); assay: cAMP production (HTRF) in CHO cells expressing hGLP-1R; assay type: cell-based; design: expressed in transfected cells; settings: for EC50: Table 6, peptides modified at position 17, cAMP in CHO hGLP-1R cells, geometric mean, read-out: hGLP-1R EC50; for % Relative Potency Ratio: Table 6, % GLP-1R activity relative to GLP-1 / % GlucR activity relative to glucagon
Sequence of human GLP-1 receptor (hGLP-1R) (P43220 24-463): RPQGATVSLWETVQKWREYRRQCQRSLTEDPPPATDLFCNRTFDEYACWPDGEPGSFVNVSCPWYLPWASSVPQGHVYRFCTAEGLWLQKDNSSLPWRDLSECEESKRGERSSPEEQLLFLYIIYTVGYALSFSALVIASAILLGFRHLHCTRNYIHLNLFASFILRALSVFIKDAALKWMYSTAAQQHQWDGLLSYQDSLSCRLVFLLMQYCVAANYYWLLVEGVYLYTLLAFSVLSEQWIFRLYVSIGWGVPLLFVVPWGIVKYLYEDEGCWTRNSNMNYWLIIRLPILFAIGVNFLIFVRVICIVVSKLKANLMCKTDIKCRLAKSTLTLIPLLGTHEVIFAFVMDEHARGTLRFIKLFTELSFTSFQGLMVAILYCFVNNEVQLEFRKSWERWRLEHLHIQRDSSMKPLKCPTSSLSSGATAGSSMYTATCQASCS
Outline: (§1)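 Cells were resuspended in assay buffer at batch-optimized density, typically 1×10^5 cells/mL for hGLP-1R and 2×10^5 cells/mL for hGCGR. After 30 min incubation at room temperature with compound, cAMP was measured by two-step HTRF. EC50 values came from 4-parameter logistic fits of % Delta F.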

[2] = target: human glucagon receptor (hGCGR) (Homo sapiens, UniProt P47871); assay: cAMP production (HTRF) in CHO cells expressing hGCGR; assay type: cell-based; design: expressed in transfected cells; settings: Table 6, peptides modified at position 17; cAMP in CHO hGCGR cells; geometric mean; read-out: hGluc-R EC50
Sequence of human glucagon receptor (hGCGR) (P47871 26-477): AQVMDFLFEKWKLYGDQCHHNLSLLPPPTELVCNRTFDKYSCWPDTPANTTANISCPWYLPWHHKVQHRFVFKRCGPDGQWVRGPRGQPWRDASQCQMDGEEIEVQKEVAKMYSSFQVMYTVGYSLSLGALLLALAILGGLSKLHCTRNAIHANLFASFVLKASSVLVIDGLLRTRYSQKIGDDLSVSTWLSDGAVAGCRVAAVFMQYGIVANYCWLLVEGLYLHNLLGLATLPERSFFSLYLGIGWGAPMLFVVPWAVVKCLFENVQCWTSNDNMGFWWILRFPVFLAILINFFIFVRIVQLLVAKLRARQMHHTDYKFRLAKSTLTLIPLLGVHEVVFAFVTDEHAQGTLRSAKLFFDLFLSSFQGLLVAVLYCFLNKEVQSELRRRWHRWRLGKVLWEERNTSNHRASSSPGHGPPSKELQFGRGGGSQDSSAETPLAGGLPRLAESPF
Outline: as §1

| Structure (SMILES) | EC50 [1] [nM] | % Relative Potency Ratio [1] | EC50 [2] [nM] |
| --- | --- | --- | --- |
| CC(C)C[C@H](NC(=O)[C@H](CC(C)C)NC(=O)C(C)(C)NC(=O)[C@H](CCC(N)=O)NC(=O)[C@@H](NC(=O)[C@H](Cc1ccccc1)NC(=O)[C@H](CC(=O)O)NC(=O)[C@H](CCCNC(=N)N)NC(=O)[C@H](C)NC(=O)[C@H](CCCNC(=N)N)NC(=O)[C@H](CCCCNC(=O)COCCOCCNC(=O)COCCOCCNC(=O)CC[C@H](NC(=O)CCCCCCCCCCCCCCCCC(=O)O)C(=O)O)NC(=O)[C@@H](NC(=O)[C@H](CC(=O)O)NC(=O)[C@H](CC(C)C)NC(=O)[C@](C)(Cc1ccccc1)NC(=O)[C@H](CCCCN)NC(=O)[C@H](CO)NC(=O)[C@@H](NC(=O)[C@H](CC(=O)O)NC(=O)[C@H](CO)NC(=O)[C@@H](NC(=O)[C@H](Cc1ccccc1)NC(=O)[C@@H](NC(=O)CNC(=O)[C@H](CCC(N)=O)NC(=O)C(C)(C)NC(=O)[C@@H](N)Cc1c[nH]cn1)[C@@H](C)O)[C@@H](C)O)C(C)C)[C@@H](C)O)C(C)C)C(=O)N[C@@H](CCC(=O)O)C(=O)NC(C)(C)C(=O)NCC(=O)O [Peptide 435] (H-H[Aib]QGTFTSDVSK[αMeF]LDTK([AEEA-AEEA-γGlu-C18 diacid])RARDFVQ[Aib]LLE[Aib]G-OH; N-terminus assumed) | 0.0227 | 21.0 | 0.24 |
| CC(C)C[C@H](NC(=O)[C@H](Cc1c[nH]c2ccccc12)NC(=O)[C@H](CCCNC(=N)N)NC(=O)[C@@H](NC(=O)[C@H](Cc1ccccc1)NC(=O)[C@H](CC(=O)O)NC(=O)[C@H](CCC(N)=O)NC(=O)[C@H](C)NC(=O)[C@H](CCCNC(=N)N)NC(=O)[C@H](CCCCNC(=O)COCCOCCNC(=O)COCCOCCNC(=O)CC[C@H](NC(=O)CCCCCCCCCCCCCCCCCCC(=O)O)C(=O)O)NC(=O)[C@H](CCCNC(=N)N)NC(=O)[C@H](CC(=O)O)NC(=O)[C@H](CC(C)C)NC(=O)[C@](C)(Cc1ccccc1)NC(=O)[C@H](CCCCN)NC(=O)[C@H](CO)NC(=O)[C@@H](NC(=O)[C@H](CC(=O)O)NC(=O)[C@H](CO)NC(=O)[C@@H](NC(=O)[C@H](Cc1ccccc1)NC(=O)[C@@H](NC(=O)CNC(=O)[C@H](CCC(N)=O)NC(=O)C(C)(C)NC(=O)[C@@H](N)Cc1c[nH]cn1)[C@@H](C)O)[C@@H](C)O)C(C)C)C(C)C)C(=O)N[C@H](C(=O)NC(C)(C)C(=O)N[C@@H](CCC(=O)O)C(N)=O)C(C)C [Peptide 437] (H-H[Aib]QGTFTSDVSK[αMeF]LDRK([AEEA-AEEA-γGlu-C20 diacid])RAQDFVRWLV[Aib]E-NH2) | 0.0269 | 7.1 | 0.0969 |
| CC(C)C[C@H](NC(=O)[C@H](Cc1c[nH]c2ccccc12)NC(=O)[C@H](CCCNC(=N)N)NC(=O)[C@@H](NC(=O)[C@H](Cc1ccccc1)NC(=O)[C@H](CC(=O)O)NC(=O)[C@H](CCC(N)=O)NC(=O)[C@H](C)NC(=O)[C@H](CCCNC(=N)N)NC(=O)[C@H](CCCCNC(=O)COCCOCCNC(=O)COCCOCCNC(=O)CC[C@H](NC(=O)CCCCCCCCCCCCCCCCC(=O)O)C(=O)O)NC(=O)[C@H](CCCCN)NC(=O)[C@H](CC(=O)O)NC(=O)[C@H](CC(C)C)NC(=O)[C@](C)(Cc1ccccc1)NC(=O)[C@H](CCCCN)NC(=O)[C@H](CO)NC(=O)[C@@H](NC(=O)[C@H](CC(=O)O)NC(=O)[C@H](CO)NC(=O)[C@@H](NC(=O)[C@H](Cc1ccccc1)NC(=O)[C@@H](NC(=O)CNC(=O)[C@H](CCC(N)=O)NC(=O)C(C)(C)NC(=O)[C@@H](N)Cc1c[nH]cn1)[C@@H](C)O)[C@@H](C)O)C(C)C)C(C)C)C(=O)N[C@@H](CCC(=O)O)C(=O)N[C@@H](C)C(=O)NC(C)(C)C(=O)NCC(N)=O [Peptide 438] (H-H[Aib]QGTFTSDVSK[αMeF]LDKK([AEEA-AEEA-γGlu-C18 diacid])RAQDFVRWLEA[Aib]G-NH2; N-terminus assumed) | 0.0179 | 7.6 | 0.0689 |

The remaining lines, values ahead:

| EC50 [1] [nM] | % Relative Potency Ratio [1] | EC50 [2] [nM] | Structure (SMILES) |
| --- | --- | --- | --- |
| 4.46 | 4.6 | 10.5 | CC(C)C[C@H](NC(=O)[C@H](Cc1cn(C)c2ccccc12)NC(=O)[C@H](CCCNC(=N)N)NC(=O)[C@@H](NC(=O)[C@H](Cc1ccccc1)NC(=O)[C@H](CC(=O)O)NC(=O)[C@H](CCC(N)=O)NC(=O)[C@H](C)NC(=O)[C@H](CCCNC(=N)N)NC(=O)[C@H](CCCCNC(=O)COCCOCCNC(=O)COCCOCCNC(=O)CC[C@H](NC(=O)CCCCCCCCCCCCCCCCC(=O)O)C(=O)O)NC(=O)[C@H](CO)NC(=O)[C@H](CC(=O)O)NC(=O)[C@H](CC(C)C)NC(=O)[C@](C)(Cc1ccccc1)NC(=O)[C@H](CCCCN)NC(=O)[C@H](CO)NC(=O)[C@@H](NC(=O)[C@H](CC(=O)O)NC(=O)[C@H](CO)NC(=O)[C@@H](NC(=O)[C@H](Cc1ccccc1)NC(=O)[C@@H](NC(=O)CNC(=O)[C@H](CCC(N)=O)NC(=O)C(C)(C)NC(=O)[C@@H](N)Cc1c[nH]cn1)[C@@H](C)O)[C@@H](C)O)C(C)C)C(C)C)C(=O)N[C@@H](CC(C)C)C(=O)NC(C)(C)C(=O)N[C@@H](CCC(=O)O)C(=O)O [Peptide 433] (H-H[Aib]QGTFTSDVSK[αMeF]LDSK([AEEA-AEEA-γGlu-C18 diacid])RAQDFVR[Trp(1-Me)]LL[Aib]E-OH; N-terminus assumed) |
| 0.153 | 3.8 | 0.294 | CC(C)C[C@H](NC(=O)[C@H](Cc1c[nH]c2ccc(Br)cc12)NC(=O)[C@H](CCCNC(=N)N)NC(=O)[C@@H](NC(=O)[C@H](Cc1ccccc1)NC(=O)[C@H](CC(=O)O)NC(=O)[C@H](CCC(N)=O)NC(=O)[C@H](C)NC(=O)[C@H](CCCNC(=N)N)NC(=O)[C@H](CCCCNC(=O)COCCOCCNC(=O)COCCOCCNC(=O)CC[C@H](NC(=O)CCCCCCCCCCCCCCCCC(=O)O)C(=O)O)NC(=O)[C@H](CO)NC(=O)[C@H](CC(=O)O)NC(=O)[C@H](CC(C)C)NC(=O)[C@](C)(Cc1ccccc1)NC(=O)[C@H](CCCCN)NC(=O)[C@H](CO)NC(=O)[C@@H](NC(=O)[C@H](CC(=O)O)NC(=O)[C@H](CO)NC(=O)[C@@H](NC(=O)[C@H](Cc1ccccc1)NC(=O)[C@@H](NC(=O)CNC(=O)[C@H](CCC(N)=O)NC(=O)C(C)(C)NC(=O)[C@@H](N)Cc1c[nH]cn1)[C@@H](C)O)[C@@H](C)O)C(C)C)C(C)C)C(=O)N[C@@H](CC(C)C)C(=O)NC(C)(C)C(=O)N[C@@H](CCC(=O)O)C(=O)O [Peptide 434] (H-H[Aib]QGTFTSDVSK[αMeF]LDSK([AEEA-AEEA-γGlu-C18 diacid])RAQDFVR[Trp(5-Br)]LL[Aib]E-OH; N-terminus assumed) |
| 0.00743 | 18.3 | 0.0688 | CC(C)C[C@H](NC(=O)[C@H](Cc1c[nH]c2ccccc12)NC(=O)[C@H](CCCNC(=N)N)NC(=O)[C@@H](NC(=O)[C@H](Cc1ccccc1)NC(=O)[C@H](CC(=O)O)NC(=O)[C@H](CCC(N)=O)NC(=O)[C@H](C)NC(=O)[C@H](CCCNC(=N)N)NC(=O)[C@H](CCCCNC(=O)COCCOCCNC(=O)COCCOCCNC(=O)CC[C@H](NC(=O)CCCCCCCCCCCCCCCCC(=O)O)C(=O)O)NC(=O)[C@H](CCCNC(=N)N)NC(=O)[C@H](CC(=O)O)NC(=O)[C@H](CC(C)C)NC(=O)[C@](C)(Cc1ccccc1)NC(=O)[C@H](CCCCN)NC(=O)[C@H](CO)NC(=O)[C@@H](NC(=O)[C@H](CC(=O)O)NC(=O)[C@H](CO)NC(=O)[C@@H](NC(=O)[C@H](Cc1ccccc1)NC(=O)[C@@H](NC(=O)CNC(=O)[C@H](CCC(N)=O)NC(=O)C(C)(C)NC(=O)[C@@H](N)Cc1c[nH]cn1)[C@@H](C)O)[C@@H](C)O)C(C)C)C(C)C)C(=O)N[C@H](C(=O)NC(C)(C)C(=O)N[C@@H](CCC(=O)O)C(N)=O)C(C)C [Peptide 436] (H-H[Aib]QGTFTSDVSK[αMeF]LDRK([AEEA-AEEA-γGlu-C18 diacid])RAQDFVRWLV[Aib]E-NH2; N-terminus assumed) |

— patent US20250353891A1 (MEDIMMUNE LIMITED, priority 2022, published 2025)
